Results from patent publication US20070014803A1, “METHODS AND COMPOSITIONS FOR DIAGNOSIS AND TREATMENT OF VIRAL AND BACTERIAL INFECTIONS” (Arbor Vita Corporation, priority 2005, published 2007).
Where no end group is shown, it is not given here.

How the values were obtained:
Assay in all cases: MATRIX screen against PDZ library (modified G assay)
Format in all cases: binding
Details in all cases: pre-incubation conditions
[1] = molecular target: T1, NSP (Homo sapiens, UniProt Q92743)
T1 construct: made in house
Protocol: (§1) Matrix graphPeptides and proteins were tested in an array format constituting a near complete set (255) of all the different PDZ domains in the human genome. Each PDZ domain polypeptide was expressed as a recombinant GST-PDZ polypeptide in a commercial glutathione S-transferase tagged expression system. Specific binding of biotinylated-PL peptides to PDZ domain polypeptides was detected using streptavidin-HRP and TMB substrate. Similarly, specific binding of PL protein-MBP fusion proteins to PDZ domain polypeptides was visualized using biotinylated anti-MBP, streptavidin-HRP and TMB substrate. The relative strength of binding was analyzed and the strong and weak binders are shown for each PL. A PDZ protein that binds more strongly is preferable when used for capturing or identifying PL proteins.
(§2) Two different types of ELISA assays were used to test the HIV Peptides 1904 and 1905. The primary MATRIX screen against all PDZ proteins in the library was performed under pre-incubation conditions, which are a modification of the G assay. A pre-incubation assay incubates the peptide with the HRP-streptavidin before addition of the mixture to the PDZ-coated plate. The subsequent titrations of the peptide against the PDZs of interest were performed under normal ELISA G assay conditions. In normal conditions the peptide is incubated on the PDZ coated plate before the later addition of the HRP-streptavidin. The reagents and supplies for both assays are listed below, as well as the two different protocols.
(§3) The PRISM Matrix ELISA modified G Assay was also used for pre-incubation and for the MATRIX assay. The protocol was as follows.
(§4) 1. Coat plate with 100 μl of 5 μg/ml anti-GST, O/N @ 4° C.
(§5) 2. Dump contents out of plate and tap dry on paper towels
(§6) 3. Block with 200 μl Assay Buffer for 1 to 2 hrs at room temperature
(§7) 4. Prepare proteins in Assay Buffer
(§8) 5. Wash plate 3× with cold PBS*
(§9) 6. Add proteins at 50 μl per well, incubate 1 to 2 hrs at 4° C.
(§10) 7. Prepare peptides in Assay Buffer:
(§11) • Prepare peptides in half of volume need with double of desired concentration. • Dilute HRP (1:1000) in another half of volume (same volume with peptide) then mix with peptides. • Incubate the peptide-HRP mixtures for 20 minutes at RT 8. Wash plate 3× with cold PBS* 9. Add peptide-HRP mixtures at 50 μl per well (write time on plate) 10. Incubate at RT after last peptide has been added for exactly 30 minutes 11. Turn on plate reader and prepare files 12. Promptly wash plate 5× with room temperature PBS 13. Add 100 μl/well TMB substrate (write time on plate) 14. Incubate in dark at room temp for a maximum of 30 minutes 15. Stop reaction with 100 μl of 0.18M H2SO4, 30 min. after adding TMB 16. Take last reading at 450 nm soon after stopping reaction

[2] = molecular target: T2, KIAA1284 (Homo sapiens, UniProt Q9ULD6)
T2 construct: made in house
Protocol: as §1, §2, §3, §4, §5, §6, §7, §8, §9, §10, §11

[3] = molecular target: T3, MAST2 (Homo sapiens, UniProt Q6P0Q8)
T3 construct: made in house
Protocol: as §1, §2, §3, §4, §5, §6, §7, §8, §9, §10, §11

[4] = molecular target: T4, SIP1 d1 (Homo sapiens, UniProt Q15599)
T4 construct: made in house
Protocol: as §1, §2, §3, §4, §5, §6, §7, §8, §9, §10, §11

[5] = molecular target: T5, PAR3 d3 (Homo sapiens, UniProt Q8TEW0, R682S)
T5 construct: made in house
Protocol: as §1, §2, §3, §4, §5, §6, §7, §8, §9, §10, §11

T5 sequence (Q8TEW0 with tags, fused parts or gaps R682S): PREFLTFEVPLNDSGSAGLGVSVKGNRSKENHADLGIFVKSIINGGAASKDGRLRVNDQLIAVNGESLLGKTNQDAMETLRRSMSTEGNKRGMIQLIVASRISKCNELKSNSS
T4 sequence (Q15599 with tags, fused parts or gaps): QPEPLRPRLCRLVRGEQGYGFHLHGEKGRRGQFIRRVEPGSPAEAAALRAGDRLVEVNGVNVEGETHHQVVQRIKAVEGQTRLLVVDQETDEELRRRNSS
T1 sequence (Q92743 359-473): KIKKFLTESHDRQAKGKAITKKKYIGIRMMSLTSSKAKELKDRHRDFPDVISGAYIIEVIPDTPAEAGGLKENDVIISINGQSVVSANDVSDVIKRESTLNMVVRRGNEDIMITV
T3 sequence (Q6P0Q8 with tags, fused parts or gaps): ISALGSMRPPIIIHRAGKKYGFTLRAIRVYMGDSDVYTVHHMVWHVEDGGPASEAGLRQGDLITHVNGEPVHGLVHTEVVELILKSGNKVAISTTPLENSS
T2 sequence (Q9ULD6 159-271): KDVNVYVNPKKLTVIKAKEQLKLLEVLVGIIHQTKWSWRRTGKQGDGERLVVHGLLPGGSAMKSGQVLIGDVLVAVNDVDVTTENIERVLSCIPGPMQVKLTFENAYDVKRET

YGRKKRRQRRRRQGFERALL-OH [Peptide 1905]
Intensity of Hit, PDZ NSP [1]: STRONG
Intensity of Hit, PDZ KIAA1284 [2]: STRONG
Intensity of Hit, PDZ MAST2 [3]: STRONG
Intensity of Hit, PDZ SIP1 d1 [4]: STRONG
Intensity of Hit, PDZ PAR3 d3 [5]: STRONG

YGRKKRRQRRRRQGLERILL-OH [Peptide 1904]
Intensity of Hit, PDZ NSP [1]: STRONG
Intensity of Hit, PDZ KIAA1284 [2]: STRONG
Intensity of Hit, PDZ MAST2 [3]: STRONG
Intensity of Hit, PDZ SIP1 d1 [4]: WEAK
Intensity of Hit, PDZ PAR3 d3 [5]: STRONG
